Here are results for 13 compounds from ChEMBL document CHEMBL1138365, “Application of 3D-QSAR for identification of descriptors defining bioactivity of antimicrobial peptides” (2007).

Molecules are shown by their SMILES. Converted amounts (≈) assume the structure as drawn. Starred links: 1 amine or outer side, 2 acyl side, 3 side chain; linkers in the order of their positions; H or OH if unused. Non-standard residues stand in square brackets, D forms with d. Residues, ends and D or L forms follow the SMILES beside them. ξ: configuration not given here. *: point of attachment. Pro(3ξ,4ξ-(CH2)4) = O=C(O)[C@H]1NCC2CCCCC21; Oic = O=C(O)[C@@H]1C[C@@H]2CCCC[C@@H]2N1; Phe(4-F) = N[C@@H](Cc1ccc(F)cc1)C(=O)O; X1 = O=C([C@H]1C2CCCCC2CN1[*:1])[*:2]; Ethylenediamine = C(CN[*:2])N[*:1]; Tic = O=C(O)[C@@H]1Cc2ccccc2CN1; dTic = O=C(O)[C@H]1Cc2ccccc2CN1; ξTic = O=C(O)C1Cc2ccccc2CN1; dOrn = NCCC[C@@H](N)C(=O)O; Orn = NCCC[C@H](N)C(=O)O; NH(CH2)3NH2 = NCCCN*; Ahx = NCCCCCC(=O)O; GABA = NCCCC(=O)O; βAla = NCCC(=O)O

The subject of test [1] is Mycolicibacterium fortuitum. Kind of test: Antibacterial activity against Mycobacterium ranae. Format: functional.
Another test relates to Staphylococcus aureus. Kind of test: Antibacterial activity against Staphylococcus aureus. Format: functional.

Regarding `CC(=O)N[C@@H](Cc1ccccc1)C(=O)N1Cc2ccccc2C[C@H]1C(=O)N1CC2CCCCC2[C@H]1C(=O)N[C@@H](CCCCN)C(=O)N1Cc2ccccc2C[C@H]1C(=O)N1CC2CCCCC2[C@H]1C(=O)N[C@@H](Cc1ccccc1)C(=O)N1Cc2ccccc2C[C@H]1C(=O)N1CC2CCCCC2[C@H]1C(=O)N[C@@H](CCCCN)C(=O)N1Cc2ccccc2C[C@H]1C(=O)N[C@@H](CCCCN)C(=O)N[C@@H](CCCCN)C(=O)N[C@@H](CCCCN)C(=O)N[C@@H](CCCCN)C(=O)N[C@@H](CCCCN)C(=O)N[C@@H](CCCCN)C(N)=O` (stereo partly specified) (Ac-F[Tic][Pro(3ξ,4ξ-(CH2)4)]K[Tic][Pro(3ξ,4ξ-(CH2)4)]F[Tic][Pro(3ξ,4ξ-(CH2)4)]K[Tic]KKKKKK-NH2), the minimum inhibitory concentration (MIC) (in test [1]; in the test with Staphylococcus aureus) was 3 µM (≈ 7.41 µg/mL) in each case.

As for `CC(=O)NCC(=O)N[C@@H](Cc1ccccc1)C(=O)N1Cc2ccccc2C[C@H]1C(=O)N1[C@H](C(=O)NCC(=O)N[C@@H](CCCCN)C(=O)N2Cc3ccccc3C[C@H]2C(=O)N2[C@H](C(=O)NCC(=O)N[C@@H](Cc3ccccc3)C(=O)N3Cc4ccccc4C[C@H]3C(=O)N3[C@H](C(=O)NCC(=O)N[C@@H](CCCCN)C(=O)N4Cc5ccccc5C[C@H]4C(=O)N[C@@H](CCCCN)C(=O)N[C@@H](CCCCN)C(=O)N[C@@H](CCCCN)C(=O)N[C@@H](CCCCN)C(=O)NCCN)C[C@@H]4CCCC[C@@H]43)C[C@@H]3CCCC[C@@H]32)C[C@@H]2CCCC[C@@H]21` (Ac-GF[Tic][Oic]GK[Tic][Oic]GF[Tic][Oic]GK[Tic]KKKK-Ethylenediamine), the MIC came to 10 µM (≈ 24.8 µg/mL) in test [1] and 3 µM (≈ 7.45 µg/mL) against Staphylococcus aureus.

As for `CC(=O)NCC(=O)N[C@@H](Cc1ccccc1)C(=O)N1Cc2ccccc2C[C@H]1C(=O)N1[C@H](C(=O)NCC(=O)N[C@@H](CCCCN)C(=O)N2Cc3ccccc3C[C@H]2C(=O)N2[C@H](C(=O)NCC(=O)N[C@@H](Cc3ccccc3)C(=O)N3Cc4ccccc4C[C@H]3C(=O)N3[C@H](C(=O)NCC(=O)N[C@@H](CCCCN)C(=O)N4Cc5ccccc5C[C@H]4C(=O)N[C@@H](CCCCN)C(=O)N[C@@H](CCCCN)C(=O)N[C@@H](CCCCN)C(=O)N[C@@H](CCCCN)C(=O)NCCCN)C[C@@H]4CCCC[C@@H]43)C[C@@H]3CCCC[C@@H]32)C[C@@H]2CCCC[C@@H]21` (Ac-GF[Tic][Oic]GK[Tic][Oic]GF[Tic][Oic]GK[Tic]KKKK-{NH(CH2)3NH2}), the MIC (in test [1]; against Staphylococcus aureus) was 10 µM (≈ 25 µg/mL) each time.

Regarding `CC(=O)NCC(=O)N[C@@H](Cc1ccccc1)C(=O)N1Cc2ccccc2C[C@H]1C(=O)N1CC2CCCCC2[C@H]1C(=O)NCC(=O)N[C@@H](CCCCN)C(=O)N1Cc2ccccc2C[C@H]1C(=O)N1CC2CCCCC2[C@H]1C(=O)NCC(=O)N[C@@H](Cc1ccccc1)C(=O)N1Cc2ccccc2C[C@H]1C(=O)N1CC2CCCCC2[C@H]1C(=O)NCC(=O)N[C@@H](CCCCN)C(=O)N1Cc2ccccc2C[C@H]1C(=O)N[C@@H](CCCCN)C(=O)N[C@@H](CCCCN)C(=O)N[C@@H](CCCCN)C(=O)N[C@@H](CCCCN)C(N)=O` (stereo partly specified) (Ac-GF[Tic][Pro(3ξ,4ξ-(CH2)4)]GK[Tic][Pro(3ξ,4ξ-(CH2)4)]GF[Tic][Pro(3ξ,4ξ-(CH2)4)]GK[Tic]KKKK-NH2), the MIC in test [1] came to 10 µM (≈ 24.4 µg/mL); against Staphylococcus aureus, 3 µM (≈ 7.32 µg/mL).

For `CC(=O)NCC(=O)N[C@@H](Cc1ccccc1)C(=O)N1Cc2ccccc2C[C@H]1C(=O)N1CC2CCCCC2[C@H]1C(=O)NCC(=O)N[C@@H](CCCCN)C(=O)N1Cc2ccccc2C[C@H]1C(=O)N1CC2CCCCC2[C@H]1C(=O)NCC(=O)N[C@@H](Cc1ccccc1)C(=O)N1Cc2ccccc2C[C@H]1C(=O)N1CC2CCCCC2[C@H]1C(=O)NCC(=O)N[C@@H](CCCCN)C(=O)N1Cc2ccccc2C[C@H]1C(=O)N[C@@H](CCCCN)C(=O)N[C@@H](CCCCN)C(=O)N[C@@H](CCCCN)C(=O)N[C@@H](CCCCN)C(=O)N[C@@H](CCCCN)C(N)=O` (stereo partly specified) (Ac-GF[Tic][Pro(3ξ,4ξ-(CH2)4)]GK[Tic][Pro(3ξ,4ξ-(CH2)4)]GF[Tic][Pro(3ξ,4ξ-(CH2)4)]GK[Tic]KKKKK-NH2), the MIC (in test [1]; against Staphylococcus aureus) was 3 µM (≈ 7.71 µg/mL) each time.

Regarding `CC(=O)NCC(=O)N[C@@H](Cc1ccccc1)C(=O)N1Cc2ccccc2C[C@H]1C(=O)N1CC2CCCCC2[C@H]1C(=O)NCC(=O)N[C@@H](CCCCN)C(=O)N1Cc2ccccc2C[C@H]1C(=O)N1CC2CCCCC2[C@H]1C(=O)NCC(=O)N[C@@H](Cc1ccccc1)C(=O)N1Cc2ccccc2C[C@H]1C(=O)N1CC2CCCCC2[C@H]1C(=O)NCC(=O)N[C@@H](CCCCN)C(=O)N1Cc2ccccc2C[C@H]1C(=O)N[C@@H](CCCN)C(=O)N[C@@H](CCCN)C(=O)N[C@@H](CCCN)C(=O)N[C@@H](CCCN)C(N)=O` (stereo partly specified) (Ac-GF[Tic][Pro(3ξ,4ξ-(CH2)4)]GK[Tic][Pro(3ξ,4ξ-(CH2)4)]GF[Tic][Pro(3ξ,4ξ-(CH2)4)]GK[Tic][Orn][Orn][Orn][Orn]-NH2), the MIC (in test [1]; in the test on Staphylococcus aureus) was 10 µM (≈ 23.8 µg/mL) throughout.

As to `CC(=O)NCC(=O)N[C@@H](Cc1ccccc1)C(=O)N1Cc2ccccc2C[C@H]1C(=O)N1CC2CCCCC2[C@@H]1C(=O)NCC(=O)N[C@H](CCCN)C(=O)N1Cc2ccccc2C[C@@H]1C(=O)N1CC2CCCCC2[C@H]1C(=O)NCC(=O)N[C@H](Cc1ccccc1)C(=O)N1Cc2ccccc2C[C@@H]1C(=O)N1CC2CCCCC2[C@@H]1C(=O)NCC(=O)N[C@H](CCCN)C(=O)N1Cc2ccccc2C[C@@H]1C(=O)N[C@H](CCCN)C(=O)N[C@H](CCCN)C(=O)N[C@H](CCCN)C(=O)N[C@H](CCCN)C(N)=O` (stereo partly specified) (Ac-GF[Tic][X1]G[dOrn][dTic][Pro(3ξ,4ξ-(CH2)4)]G[dF][dTic][X1]G[dOrn][dTic][dOrn][dOrn][dOrn][dOrn]-NH2), the figures for the MIC (in test [1]; in the test with Staphylococcus aureus) were 10 µM (≈ 23.6 µg/mL) and 3 µM (≈ 7.07 µg/mL), respectively.

Consider `CC(=O)NCC(=O)N[C@@H](Cc1ccc(F)cc1)C(=O)N1Cc2ccccc2C[C@H]1C(=O)N1CC2CCCCC2[C@H]1C(=O)NCC(=O)N[C@@H](CCCCN)C(=O)N1Cc2ccccc2C[C@H]1C(=O)N1CC2CCCCC2[C@H]1C(=O)NCC(=O)N[C@@H](Cc1ccc(F)cc1)C(=O)N1Cc2ccccc2C[C@H]1C(=O)N1CC2CCCCC2[C@H]1C(=O)NCC(=O)N[C@@H](CCCCN)C(=O)N1Cc2ccccc2C[C@H]1C(=O)N[C@@H](CCCCN)C(=O)N[C@@H](CCCCN)C(=O)N[C@@H](CCCCN)C(=O)N[C@@H](CCCCN)C(N)=O` (stereo partly specified) (Ac-G[Phe(4-F)][Tic][Pro(3ξ,4ξ-(CH2)4)]GK[Tic][Pro(3ξ,4ξ-(CH2)4)]G[Phe(4-F)][Tic][Pro(3ξ,4ξ-(CH2)4)]GK[Tic]KKKK-NH2), for which the results for the MIC (in test [1]; against Staphylococcus aureus) were 3 µM (≈ 7.43 µg/mL) and 10 µM (≈ 24.8 µg/mL), respectively.

Consider `CC(=O)NCC(=O)N1Cc2ccccc2C[C@H]1C(=O)N1CC2CCCCC2[C@H]1C(=O)N[C@@H](CCCCN)C(=O)N1Cc2ccccc2C[C@H]1C(=O)N1CC2CCCCC2[C@H]1C(=O)NCC(=O)N1Cc2ccccc2CC1C(=O)N1CC2CCCCC2[C@H]1C(=O)N[C@@H](CCCCN)C(=O)N1Cc2ccccc2C[C@H]1C(=O)N[C@@H](CCCCN)C(=O)N[C@@H](CCCCN)C(=O)N[C@@H](CCCCN)C(=O)N[C@@H](CCCCN)C(N)=O` (stereo partly specified) (Ac-G[Tic][Pro(3ξ,4ξ-(CH2)4)]K[Tic][Pro(3ξ,4ξ-(CH2)4)]G[ξTic][Pro(3ξ,4ξ-(CH2)4)]K[Tic]KKKK-NH2), for which the MIC worked out at 3 µM (≈ 6.1 µg/mL) in test [1] and 10 µM (≈ 20.3 µg/mL) in the test with Staphylococcus aureus.

For the compound `CC(=O)NCCCCCC(=O)N[C@@H](Cc1ccccc1)C(=O)N1Cc2ccccc2C[C@H]1C(=O)N1CC2CCCCC2[C@H]1C(=O)NCCCCCC(=O)N[C@@H](CCCCN)C(=O)N1Cc2ccccc2C[C@H]1C(=O)N1CC2CCCCC2[C@H]1C(=O)NCCCCCC(=O)N[C@@H](Cc1ccccc1)C(=O)N1Cc2ccccc2C[C@H]1C(=O)N1CC2CCCCC2[C@H]1C(=O)NCCCCCC(=O)N[C@@H](CCCCN)C(=O)N1Cc2ccccc2C[C@H]1C(=O)N[C@@H](CCCCN)C(=O)N[C@@H](CCCCN)C(=O)N[C@@H](CCCCN)C(=O)N[C@@H](CCCCN)C(N)=O` (stereo partly specified) (Ac-[Ahx]F[Tic][Pro(3ξ,4ξ-(CH2)4)][Ahx]K[Tic][Pro(3ξ,4ξ-(CH2)4)][Ahx]F[Tic][Pro(3ξ,4ξ-(CH2)4)][Ahx]K[Tic]KKKK-NH2), the MIC in test [1] amounted to 3 µM (≈ 8 µg/mL); with Staphylococcus aureus, 10 µM (≈ 26.7 µg/mL).

As for `CC(=O)NCCCC(=O)N[C@@H](Cc1ccccc1)C(=O)N1Cc2ccccc2C[C@H]1C(=O)N1CC2CCCCC2[C@H]1C(=O)NCCCC(=O)N[C@@H](CCCCN)C(=O)N1Cc2ccccc2C[C@H]1C(=O)N1CC2CCCCC2[C@H]1C(=O)NCCCC(=O)N[C@@H](Cc1ccccc1)C(=O)N1Cc2ccccc2C[C@H]1C(=O)N1CC2CCCCC2[C@H]1C(=O)NCCCC(=O)N[C@@H](CCCCN)C(=O)N1Cc2ccccc2C[C@H]1C(=O)N[C@@H](CCCCN)C(=O)N[C@@H](CCCCN)C(=O)N[C@@H](CCCCN)C(=O)N[C@@H](CCCCN)C(N)=O` (stereo partly specified) (Ac-[GABA]F[Tic][Pro(3ξ,4ξ-(CH2)4)][GABA]K[Tic][Pro(3ξ,4ξ-(CH2)4)][GABA]F[Tic][Pro(3ξ,4ξ-(CH2)4)][GABA]K[Tic]KKKK-NH2), the minimal inhibitory concentration (MIC) in test [1] amounted to 10 µM (≈ 25.5 µg/mL); against Staphylococcus aureus it was 100 µM (≈ 255 µg/mL).

Consider `CC(=O)NCCCC(=O)N[C@@H](Cc1ccccc1)C(=O)N1Cc2ccccc2C[C@H]1C(=O)N1CC2CCCCC2[C@H]1C(=O)NCCCC(=O)N[C@@H](CCCCN)C(=O)N1Cc2ccccc2C[C@H]1C(=O)N1CC2CCCCC2[C@H]1C(=O)NCCCC(=O)N[C@@H](Cc1ccccc1)C(=O)N1Cc2ccccc2C[C@H]1C(=O)N1CC2CCCCC2[C@H]1C(=O)NCCCC(=O)N[C@@H](CCCCN)C(=O)N1Cc2ccccc2C[C@H]1C(=O)N[C@@H](CCCCN)C(=O)N[C@@H](CCCCN)C(=O)N[C@@H](CCCCN)C(=O)N[C@@H](CCCCN)C(=O)N[C@@H](CCCCN)C(N)=O` (stereo partly specified) (Ac-[GABA]F[Tic][Pro(3ξ,4ξ-(CH2)4)][GABA]K[Tic][Pro(3ξ,4ξ-(CH2)4)][GABA]F[Tic][Pro(3ξ,4ξ-(CH2)4)][GABA]K[Tic]KKKKK-NH2), for which the MIC in test [1] is 3 µM (≈ 8.04 µg/mL); against Staphylococcus aureus, 30 µM (≈ 80.4 µg/mL).

In the case of `CC(=O)NCCC(=O)N[C@@H](Cc1ccccc1)C(=O)N1Cc2ccccc2C[C@H]1C(=O)N1CC2CCCCC2[C@H]1C(=O)NCCC(=O)N[C@@H](CCCCN)C(=O)N1Cc2ccccc2C[C@H]1C(=O)N1CC2CCCCC2[C@H]1C(=O)NCCC(=O)N[C@@H](Cc1ccccc1)C(=O)N1Cc2ccccc2C[C@@H]1C(=O)N1CC2CCCCC2[C@H]1C(=O)NCCC(=O)N[C@@H](CCCCN)C(=O)N1Cc2ccccc2C[C@H]1C(=O)N[C@@H](CCCCN)C(=O)N[C@@H](CCCCN)C(=O)N[C@@H](CCCCN)C(=O)N[C@@H](CCCCN)C(N)=O` (stereo partly specified) (Ac-[βAla]F[Tic][Pro(3ξ,4ξ-(CH2)4)][βAla]K[Tic][Pro(3ξ,4ξ-(CH2)4)][βAla]F[dTic][Pro(3ξ,4ξ-(CH2)4)][βAla]K[Tic]KKKK-NH2), the minimum inhibitory concentration (MIC) stood at 1 µM (≈ 2.5 µg/mL) in test [1] and 10 µM (≈ 25 µg/mL) against Staphylococcus aureus.
